Measurements as given in US11840551B2, “Compositions and methods of modulating the immune response by activating alpha protein kinase 1” (Shanghai Yao Yuan Biotechnology Co., Ltd., priority 2017, dated 2023).

How the values were obtained:
ALPK1 [1] = target: T1, ALPK1 (Homo sapiens, UniProt Q96QP1); assay: Thermal shift assay (SYPRO Orange) for binding to ALPK1; settings: ALPK1 7 uM; 1, 5, 25, 125 uM compound; H1b-ADP shift at 5, 25 and 125 uM
From the text: The thermal shift assay is widely used to determine the binding of a molecule to a protein of interest. The assay is based on the increase in thermal energy required for denaturation of a protein where another molecule is bound to the protein. SYPRO Orange is a fluorescent compound used in the detection of thermal shift. SYPRO Orange binds to hydrophobic surfaces of the protein, and water strongly quenches its fluorescence. When the protein unfolds, the exposed hydrophobic surfaces bind the dye, resulting in an increase in fluorescence. When another molecule is bound to the protein, an increase in the temperature required for unfolding of the protein is observed.
This assay system was used to determine whether or not chemically synthesized HBP, HMP-1bP, and H1b-ADP directly bind to ALPK1. […] Only H1b-ADP induced a shift of more than 1 degree, at each of the three highest concentrations tested, 5 uM, 25 uM, and 125 uM.

ALPK1 [2] = target: T1, ALPK1; assay: In vitro kinase assay of ALPK1-dependent TIFA phosphorylation; type: biochemical
Procedure: We performed an in vitro kinase assay with H1b-ADP and H1b-ADP-6L along with ALPK1 protein (2 nM), and TIFA protein (1.6 uM) in kinase buffer containing 50 uM ATP. TIFA phosphorylation was analyzed by denaturing gel electrophoresis followed by western blotting using an anti-phosphothreonine antibody. H1b-ADP or H1b-ADP-6L was added at 2 nM, 0.4 nM, 80 pM, 16 pM, and 3 pM.
To test this, we performed an in vitro kinase reaction for ALPK1-dependent TIFA phosphorylation in the presence of either HBP or HIdA purified from E. coli containing inactivated HIdE, or in the presence of HBP and HIdA purified from the same HIdE wild-type E. coli used in the previous experiments. Phosphorylated TIFA (three concentrations, 1%, 0.2% and […]) was detected as described above by denaturing gel electrophoresis followed by Western analysis.

[3] = system: mouse bone marrow-derived macrophages; assay: Cxcl1 mRNA expression in bone marrow-derived macrophages (qPCR); type: cell-based; settings: 0.4 nM or 2 nM H1b-ADP, 2.5 hours
Procedure: In these experiments, mouse bone marrow-derived macrophages were treated with 0.4 nM or 2 nM H1b-ADP for 2.5 hours and harvested for mRNA expression analysis of Cxcl1 by qPCR. […] Accordingly, very low doses of H1b-ADP, or an agonist thereof, may be used to enhance or potentiate an immune response in a local tissue.

[4] = system: phosphatase activity in the serum; assay: Incubation of H1b-ADP with FBS, product analysed by LC-MS; type: in vitro ADME, bovine; settings: increasing incubation time, LC-MS; product determined to be AMP
From the text: FBS contains 110-352 μU/ml alkaline phosphatase.

ALPK1 [5] = target: T1, ALPK1; assay: IL8 secretion in HEK293 cells (IL8 ELISA) as indicator of ALPK1 activation; settings: cells cultured with fetal bovine, human or mouse serum
Procedure: Phosphatase such as the alkaline phosphatase may be responsible for H1b-ADP hydrolysis. We pre-mixed H1b-ADP with phosphatase inhibitor sodium orthovanadate (Na3VO4) before incubation with FBS. […] We hypothesized that the accumulation of hydrolysis product AMP can inhibit phosphatase activity.
A number of H1b-ADP derivative compounds were made as described herein and tested for biological activity as agonists of ALPK1 in vitro. In these experiments, serial dilutions of the compounds were added to the tissue culture media of HEK293 cells with (FIG. 27B, FIG. 28B, FIG. 29B) or without (FIG. 26, FIG. 27A, FIG. 28A, FIG. 29A) 10% FBS, as indicated in the figures. After 4 hours, the cell supernatant was collected and analyzed for IL8 concentration using IL8 ELISA (BD) as an indicator of ALPK1 activation.

ALPK1 [6] = target: T1, ALPK1; assay: Cell-free kinase assay of ALPK1-dependent phosphorylation of IκB; type: biochemical; settings: 2 nM ALPK1, with or without ATP, 1 hour
Procedure: We next tested whether H1b-ADP-induced autophosphorylation of ALPK1 was effective to activate NFκB using phosphorylation of IκB as a marker for this activity. Phosphorylation assays were performed according to standard protocols and phosphorylated protein was detected by gel electrophoresis and Western blotting using an antibody that detects phosphorylated IκB. Briefly, assays were performed in a 20 μl volume at 25° C. in assay buffer (25 mM HEPES pH 7.5, 50 mM KCl, 0.1 mM EDTA, 0.1 mM EGTA, 2 mM DTT, 1.5 mM CaCl2, 10 mM MgCl2) containing 2 nM ALPK1 and H1b-ADP […] with or without ATP, or either ALPK1 alone or H1b-ADP alone, both in the presence of ATP. After 1 hour of incubation, the reaction was loaded to denaturing gel for protein electrophoresis and Western was performed to detect phosphorylation of 1 kB using p-IkB antibody (Abcam).

CT26 cells = assay: mRNA expression in CT26 tumor tissue after intratumoral injection (qPCR); type: in vivo, BALB/c mice; settings: H1b-ADP 2.5 μg, 250 ng, 50 ng intratumoral, 4 hours post-injection
Procedure: We next asked whether H1b-ADP caused an increase in pro-inflammatory cytokines within the tumor. Tumor cells (2×10^5 per 100 μL CT26 cells) were inoculated subcutaneously into the right flank of BALB/c mice. 2.5 μg (n=2), 250 ng (n=2), 50 ng (n=2) of H1b-ADP or control (n=2) was intratumorally injected (20 uL) at day 7 post inoculation. 4 hours post-injection, tumor issues were dissected and harvested. Total RNA was isolated (TRIzol™, ThermoFisher) and cDNA was synthesized (PrimeScript™ RT reagent Kit, Takara) and amplified (AceQ™ qPCR SYBR™ Green Master Mix, Vazyme Biotech using a QuantStudio™ 7 Flex Real-Time PCR Systems (ThermoFisher) according to manufacturers' protocols.

T1 sequence (Q96QP1 whole entry): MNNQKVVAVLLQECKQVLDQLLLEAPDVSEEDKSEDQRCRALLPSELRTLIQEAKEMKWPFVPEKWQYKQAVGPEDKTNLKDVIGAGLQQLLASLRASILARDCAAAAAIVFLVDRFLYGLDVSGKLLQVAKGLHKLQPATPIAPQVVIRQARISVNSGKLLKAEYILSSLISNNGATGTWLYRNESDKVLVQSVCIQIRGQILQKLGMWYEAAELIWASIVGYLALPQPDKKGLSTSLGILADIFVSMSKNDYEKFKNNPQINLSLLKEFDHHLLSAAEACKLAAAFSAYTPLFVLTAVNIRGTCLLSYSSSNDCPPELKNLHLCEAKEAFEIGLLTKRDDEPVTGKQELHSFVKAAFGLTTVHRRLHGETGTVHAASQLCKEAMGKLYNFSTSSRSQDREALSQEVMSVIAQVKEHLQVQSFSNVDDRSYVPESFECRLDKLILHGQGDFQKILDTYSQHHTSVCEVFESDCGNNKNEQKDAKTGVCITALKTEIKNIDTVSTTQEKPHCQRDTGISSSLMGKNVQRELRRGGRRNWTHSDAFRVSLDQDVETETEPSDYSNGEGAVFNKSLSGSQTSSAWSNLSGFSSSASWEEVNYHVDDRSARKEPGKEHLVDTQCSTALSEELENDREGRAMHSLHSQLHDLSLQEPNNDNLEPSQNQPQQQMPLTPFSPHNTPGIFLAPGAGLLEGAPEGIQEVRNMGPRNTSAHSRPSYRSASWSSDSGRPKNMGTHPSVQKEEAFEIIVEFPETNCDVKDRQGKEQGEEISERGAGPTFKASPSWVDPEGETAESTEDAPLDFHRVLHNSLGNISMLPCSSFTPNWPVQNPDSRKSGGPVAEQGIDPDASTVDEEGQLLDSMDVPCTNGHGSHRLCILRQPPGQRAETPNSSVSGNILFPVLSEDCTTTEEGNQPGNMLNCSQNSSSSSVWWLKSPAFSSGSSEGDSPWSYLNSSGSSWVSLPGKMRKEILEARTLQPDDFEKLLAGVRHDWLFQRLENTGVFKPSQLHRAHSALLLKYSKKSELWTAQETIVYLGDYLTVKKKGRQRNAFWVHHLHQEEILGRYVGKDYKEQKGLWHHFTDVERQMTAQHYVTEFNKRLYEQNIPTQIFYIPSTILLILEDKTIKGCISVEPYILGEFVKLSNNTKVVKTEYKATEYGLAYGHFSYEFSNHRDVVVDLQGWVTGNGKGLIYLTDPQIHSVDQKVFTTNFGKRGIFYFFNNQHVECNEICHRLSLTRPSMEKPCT

| SMILES | thermal shift of ALPK1 (ALPK1 [1]) | phosphorylation of the ALPK1 substrate TIFA (ALPK1 [2]; FIG. 7, chemically-synthesized compounds) | Cxcl1 mRNA expression, fold change over non-treated control [3] | H1b-ADP amount on incubation with FBS [4] | H1b-ADP's activity to activate ALPK1 in HEK293 cells (IL8 secretion) (ALPK1 [5]) | IκB phosphorylation (ALPK1 [6]) | TIFA phosphorylation (ALPK1 [2]; ALPK1 2 nM, TIFA 1.6 uM, 50 uM ATP, compound 2 nM, 0.4 nM, 80 pM, 16 pM, 3 pM) | PD-1 and PD-L1 expression in tumor (CT26 cells) | mRNA expression of CD8, CD4, Foxp3 and T-bet in tumor (CT26 cells) | mRNA expression of inflammatory cytokine IL-1b, Tnfa, Ifn gamma, and IL-6, and chemokine Cxcl1 in tumor (CT26 cells) |
| --- | --- | --- | --- | --- | --- | --- | --- | --- | --- | --- |
| O=P(O)(O)O[C@@H]1O[C@H]([C@H](O)CO)[C@@H](O)[C@H](O)[C@@H]1O [HMP-1bP, D-glycero-β-D-manno-heptose-1-phosphate] | Neither HBP nor HMP-1bP were able to induce a thermal shift | TIFA is phosphorylated only in the presence of H1b-ADP |  |  |  |  |  |  |  |  |
| Nc1ncnc2c1ncn2[C@@H]1O[C@H](COP(=O)(O)OP(=O)(O)O[C@@H]2O[C@H]([C@H](O)CO)[C@@H](O)[C@H](O)[C@@H]2O)[C@@H](O)[C@H]1O [Compound H1b-ADP, D-glycero-D-manno-heptose-1β-ADP] |  |  | showed a dose-dependent response | the H1b-ADP amount declined | greatly declined | IkB phosphorylation was detected only in the presence of both ALPK1 and H1b-ADP in the presence of ATP | phosphorylation of the ALPK1 substrate TIFA | increased in H1b-ADP injected tumor | increased upon H1b-ADP injection | increased upon H1b-ADP injection |
